“Also recorded” adds a separate entry of the source. Marks after values point to notes of the source that are not given here.
Assays:
[1] = Example 1: placebo controlled cross-over study, road noise model, healthy volunteers; assay type: in vivo, human
Experimental: A placebo controlled, randomized, double-blind, cross-over study of the effects of the compound of formula (II) was conducted using a road noise model using 12 healthy volunteers. Specifically, the volunteers were subjected to road traffic noise to imitate the effects of insomnia, and the medication was orally administered 5 minutes before the 11 pm bed time in 1.0 mg, 1.5 mg, 2 mg and 2.5 mg doses in the form of a hard gelatine capsule containing the powdered compound of formula (II). Measurements were then taken at 8, 10 and 12 hours after dosing.

[2] = target: T1, rat GABAA receptors α1β2γ2 (Rattus norvegicus, UniProt P18508+P62813); assay: Stimulation of GABA (EC3-5)-elicited currents in Xenopus oocytes, two-electrode voltage clamp, α1β2γ2; assay type: cell-based
T1 construct: expressed in transfected cells; host or cells: Xenopus laevis oocytes, cRNA microinjected
T1 sequence (P62813 28-455): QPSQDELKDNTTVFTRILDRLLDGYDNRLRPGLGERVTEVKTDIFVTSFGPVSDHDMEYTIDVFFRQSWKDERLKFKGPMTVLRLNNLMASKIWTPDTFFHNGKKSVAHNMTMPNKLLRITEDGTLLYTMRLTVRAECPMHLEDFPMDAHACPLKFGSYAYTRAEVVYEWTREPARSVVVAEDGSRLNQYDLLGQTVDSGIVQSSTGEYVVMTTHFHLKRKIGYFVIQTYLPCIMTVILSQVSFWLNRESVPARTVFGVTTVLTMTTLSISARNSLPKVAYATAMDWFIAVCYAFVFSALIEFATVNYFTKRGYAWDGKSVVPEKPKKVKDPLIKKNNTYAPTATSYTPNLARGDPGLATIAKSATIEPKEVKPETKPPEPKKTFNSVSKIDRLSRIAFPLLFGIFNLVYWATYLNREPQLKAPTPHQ
T1 sequence (P63138 25-474 partner limits assumed): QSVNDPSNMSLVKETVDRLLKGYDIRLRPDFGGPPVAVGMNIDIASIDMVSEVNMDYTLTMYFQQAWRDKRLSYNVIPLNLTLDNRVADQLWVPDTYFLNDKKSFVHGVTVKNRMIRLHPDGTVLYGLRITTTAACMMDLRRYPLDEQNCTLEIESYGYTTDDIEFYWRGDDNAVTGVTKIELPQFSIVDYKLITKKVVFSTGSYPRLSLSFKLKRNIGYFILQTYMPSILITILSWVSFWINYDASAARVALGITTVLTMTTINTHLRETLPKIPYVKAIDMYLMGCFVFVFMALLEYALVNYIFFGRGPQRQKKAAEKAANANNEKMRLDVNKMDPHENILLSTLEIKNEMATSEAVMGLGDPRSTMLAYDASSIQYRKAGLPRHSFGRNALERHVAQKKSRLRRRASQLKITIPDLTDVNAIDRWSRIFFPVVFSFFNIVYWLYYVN
T1 sequence (P18508 39-466): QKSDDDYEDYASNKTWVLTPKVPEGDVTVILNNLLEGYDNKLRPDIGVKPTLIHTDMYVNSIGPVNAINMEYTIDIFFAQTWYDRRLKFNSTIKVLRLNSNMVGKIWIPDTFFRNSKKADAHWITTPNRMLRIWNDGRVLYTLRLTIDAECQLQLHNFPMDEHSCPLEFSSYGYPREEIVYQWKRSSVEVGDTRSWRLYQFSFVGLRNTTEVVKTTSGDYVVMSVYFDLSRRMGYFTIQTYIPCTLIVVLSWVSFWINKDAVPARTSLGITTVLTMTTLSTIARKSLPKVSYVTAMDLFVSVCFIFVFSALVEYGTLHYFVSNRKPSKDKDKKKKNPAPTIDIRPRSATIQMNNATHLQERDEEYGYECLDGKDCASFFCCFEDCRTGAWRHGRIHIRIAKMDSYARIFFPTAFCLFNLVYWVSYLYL
Description: 7-Chloro-3-(5-dimethylaminomethyl-[1,2,4]oxadiazol-3-yl)-5methyl-4,5-dihydro-imidazol[1,5,-a][1,4]benzodiazepine-6-one was used to test the effects of the compound of formula (II): […]
Similar procedures were chosen as for the investigation of other GABAA receptor subunit specific substances (e.g., Baur et al., 2005; Mol. Pharmacol. 68, 787-792).
Lobes of the ovary containing the follicles were obtained by surgical procedures from female Xenopus laevis. Follicles were singled out using a platinum loop. Fifty nL of cRNA solution at a ratio of αx:β2:γ2 of 1:1:5 (3.3-10 nM αx (x=1,2,3,5); 3.3-10 nM β2; 16.7-50 nM γ2) (Boileau et al., 2002; Neuropharmacology 43, 695-700) were microinjected into Xenopus follicles. Several hours after microinjection the follicles were freed of follicular layers and adhering connective tissue by a collagenase/hypertonic shock procedure (Sigel, 1987; J. Physiol.(Land) 386, 73-90). Oocytes were kept at constant 18° C. until measurement (1-4 days) in a modified Barth solution (88 mM NaCl, 1 mM KCl, 2.4 mM NaHCO3, 10 mM Hepes-NaOH (pH 7.5), 0.82 mM MgSO4×7H2O, 0.34 mM Ca(NO3)2×4H2O, 0.41 mM CaCl2×2H2O, 100 U Penicillin/mL, 100 μg Streptomycin/mL, sterile filtered).
Currents were measured using a home-built amplifier in combination with a xy-recorder or were digitized using a MacLab/200 (AD Instruments) and stored on a computer. Xenopus oocytes were voltage clamped using the two-electrode voltage clamp technique (electrode resistance about 0.8 MΩ) at −80 mV. The medium contained 90 mM NaCl, 1 mM KCl, 1 mM MgCl2, 1 mM CaCl2, 10 mM Na-Hepes (pH 7.4) and 0.5% DMSO.
GABA was applied for 20-50 seconds without or in combination with other drugs and a washout period of 4 minutes was allowed to ensure full recovery from desensitization, which was experimentally determined. The perfusion solution (6 mL/min) was applied through a glass capillary with an inner diameter of 1.35 mm, the mouth of which was placed about 0.4 mm from the surface of the oocyte. The rate of solution change under our conditions has been estimated 70% within less than 0.5 s (Sigel et al., 1990; Neuron 5, 703-711). The entire perfusion system and the assay chamber were cleaned between drug applications by washing with DMSO.
Data is given as mean±SD, except in the figures where data is shown for clarity as mean±SEM. Current stimulation was calculated as follows: stimulation (%)=((I(GABA+modulator)−I(GABA))/I(GABA))×100%, where I is the current amplitude. Where indicated, the stimulation was standardized to the stimulation by 1 μM diazepam (100%). To obtain FIGS. 1-4, values for current stimulation obtained at a given concentration of modulator at a given subunit combination were averaged. The data points were fitted with the equation stimulation=efficacy/(1+(potency/concentration of modulator)). The values given in the Tables (Summary) are obtained by fitting individual curves and subsequently averaging efficacy and potency.
GABA (EC3-5) was applied to an oocyte expressing α1β2γ2 GABAA receptors several times until the current response was stable. The GABA (EC3-5) refers to the effective concentration of GABA, which produces a response that is 3-5% of the maximal response to high concentrations of GABA. Such a low concentration of GABA is chosen in order to better see the potentiating effect of positive allosteric modulators.
GABA was then applied in combination with various concentrations of the compound of formula (II) between 0.3 nM and 3,000 nM to produce a cumulative concentration response curve. […] In each batch of oocytes the stimulation by 1 μM diazepam was determined in five ocytes, extent of stimulation averaged and defined as 100%. Where indicated, stimulation by the compound of formula (II) in each batch of ocytes was expressed as a percentage of this value in the corresponding batch.
GABA (EC3-5) was applied to an oocyte expressing α1β2γ2 GABAA receptors several times until the current response was stable.

[3] = 1.5, 2.0 & 2.5 mg oral, vs placebo
[4] = all 4 doses (1.0, 1.5, 2 and 2.5 mg oral)
[5] = objective residual effects, 8, 10 and 12 hours after dosing

CN(C)Cc1nc(-c2ncn3c2CN(C)C(=O)c2c(Cl)cccc2-3)no1 [compound of formula (II), 7-chloro-3-(5-dimethylaminomethyl-[1,2,4]oxadiazol-3-yl)-5-methyl-4,5-dihydro-imidazo[1,5-a][1,4]benzodiazepine-6-one]
Subjective assessment (LARS): Coordination ([1]; 2.5 mg): No impairment
Subjective assessment (LARS): Mood ([1]; 2.5 mg): No impairment
Subjective assessment (LARS): Sedation ([1]; 2.5 mg): No impairment
WASO 2nd half night (hrs 5-8) [1, 3]: Significantly reduced
WASO full night (hrs 0-8) [1, 3]: Significantly reduced
Sleep Efficiency Index ([1]; 2.0 & 2.5 mg oral, vs placebo): Significantly improved
Total Sleep Time ([1]; 2.0 & 2.5 mg oral, vs placebo): Significantly improved
Performance on cognitive or psychomotor tests ([1]; 8 to 12 hours after dose, data corrected for multiple comparisons): no impairment of performance
Leeds Sleep Evaluation Questionnaire: Quality of sleep ([1]; all 4 doses): Significantly improved at all
Slow Wave Sleep (% and duration) [1, 4]: Significantly increased
Stage IV Sleep (% and duration) [1, 4]: Significantly increased
Sternberg Memory Task (STM) ([1]; at 8 or 12 h): No effect
Continuous Tracking Task - reaction time ([1]; at 10 or 12 h): No effect
Continuous Tracking Task - deviation ([1]; at 8 h): No effect
Leeds Sleep Evaluation Questionnaire: Early morning behaviour (clumsiness & tiredness) ([1]; human, in vivo): No effect
Leeds Sleep Evaluation Questionnaire: Ease of awakening ([1]; human, in vivo): No effect
Choice Reaction Time - Motor Component ([1]; objective residual effects): No effect
Critical Flicker Fusion Test ([1]; objective residual effects): No effect
Word Recall - delayed (WRd) ([1]; objective residual effects): No effect
Rapid Visual Information Processing [1, 5]: No effect
Sustained Attention to Response (SART) [1, 5]: No effect
Leeds Sleep Evaluation Questionnaire: Getting to sleep ([1]; road traffic noise model considered nondiscriminant for sleep onset measures): (No effect)*
Intrinsic activity / type of allosteric modulation ([2]; GABAA receptor benzodiazepine site, relative to diazepam): partial positive allosteric modulator; also recorded: partial agonist
Receptor subtype preference ([2]; at concentrations <100 nM, in comparison to α5β2γ2, α3β2γ2 and α2β2γ2): preference for α1β2γ2 GABAA receptors
EC50 ([2]; α1β2γ2, GABA EC3-5, mean±SD of individually fitted curves, read-out: Potency): 18 ± 6 nM
Standardized Efficacy ([2]; α1β2γ2, standardized to stimulation by 1 μM diazepam (100%)): 62 ± 10% (n = 4)
Efficacy ([2]; α1β2γ2, unstandardized current stimulation): 123 ± 19% (n = 4)
